Experimental data reported in US20100022614A1, “PHARMACEUTICAL COMPOSITION FOR EXTERNAL APPLICATION AND ADHESIVE SKIN PATCH” (priority 2006, published 2010).
One block for each molecule: values may come before it.

Experiments:
Assay type in all cases: physicochemical
[1] = Drug stability test (Test Example 2): loxoprofen sodium in solvent systems left at 60° C., HPLC; settings: for Loxoprofen sodium content (%) (vs. initial value): 60° C.
Method: To each solvent was added 0.1 g of loxoprofen sodium, and the mixture was stirred at 25° C. overnight. The stirred mixture was filtrated to obtain a filtrate for use as a sample solution, and this sample solution was left to stand at 60° C. Thereafter, the mass of loxoprofen sodium being present in each solvent system was measured with high performance liquid chromatography (HPLC) 0 months later (initial value), 0.5 months later, and 1.0 month later. The results are shown in FIG. 1 and Table 2 in terms of the ratio of each measurement with respect to the initial value.

[2] = Drug stability test (Test Example 3): loxoprofen sodium in solvent systems, autoclaving at 120° C.; settings: for Loxoprofen sodium content (%) (vs. initial value): autoclaving 120° C.
Method: To each solvent was added 0.1 g of loxoprofen sodium, and the mixture was stirred at 25° C. overnight. The stirred mixture was filtrated to obtain a filtrate for use as a sample solution. This sample solution was subjected to an autoclaving treatment at 120° C., and the mass of loxoprofen sodium being present in each solvent system was measured at time 0 (initial value), 2 hrs later, 4 hrs later, and 6 hrs later. The results are shown in FIG. 2 and Table 3 in terms of the ratio of each measurement with respect to the initial value. The measurement procedure was similar to Test Example 2.

[3] = Drug solubility test (Test Example 1): amount of LOX dissolved in 1 g of additive, visual observation
Method: The amount of dissolution of loxoprofen sodium (LOX) with respect to 1 g of each additive was determined by visual observation.

[4] = Drug stability test (Test Example 5, FIG. 4): loxoprofen sodium or felbinac in lactic acid with NMP; settings: 0.1 g drug in 5 g lactic acid with 1 g or 10 g NMP; autoclaving 120° C.
Method: By a similar procedure to Test Example 3 except that either 1 g or 10 g of N-methyl-2-pyrrolidone was further mixed with a mixed solution of 0.1 g of loxoprofen sodium or felbinac and 5 g of lactic acid, the mass of the drug being present in each solvent system was measured.

[5] = Drug stability test (Test Example 4, FIG. 3): loxoprofen/lactic acid with additives, with or without NMP; settings: for stability of LOX (in words): NMP added to LOX
Method: By a similar procedure to Test Example 3 except that 1 g of an additive (aspartic acid, isostearic acid, disodium edetate, a carboxyvinyl polymer or polyvinylpyrrolidone) was added to a mixed solution of 0.1 g of loxoprofen and 5 g of lactic acid, the mass of loxoprofen sodium being present in each solvent system was measured.
In addition, by a similar procedure to Test Example 3 except that 1 g of N-methyl-2-pyrrolidone, and 1 g of an additive (aspartic acid, isostearic acid, disodium edetate, the carboxyvinyl polymer or polyvinylpyrrolidone) were further mixed, the mass of loxoprofen sodium being present in each solvent system was measured. The results are shown in FIG. 3 in terms of the ratio of each measurement with respect to the initial value.

[6] = Drug stability test (Test Example 6, FIG. 5): diclofenac sodium in lactic acid or glycerin with NMP; settings: autoclaving 120° C.
Method: By a similar procedure to Test Example 5 except that a mixed solution of 0.1 g of diclofenac sodium and 5 g of lactic acid or glycerin was used, the mass of the drug being present in each solvent system was measured.

[7] = Drug stability test (Test Example 7, FIG. 6): tulobuterol in acetic acid with NMP; settings: 0.1 g drug in 5 g acetic acid with 1 g or 10 g NMP; autoclaving 120° C.
Method: By a similar procedure to Test Example 5 except that a mixed solution of 0.1 g of tulobuterol and 5 g of acetic acid was used, the mass of the drug being present in each solvent system was measured.

- Loxoprofen sodium content (%) (vs. initial value) ([1]; solvent system Conc. glycerin 5 g, 0.5 months later): 87.2%
- Loxoprofen sodium content (%) (vs. initial value) ([1]; solvent system Conc. glycerin 5 g, 1.0 month later): 82.4%
- Loxoprofen sodium content (%) (vs. initial value) ([1]; solvent system Lactic acid 5 g + NMP0.1 g, 0.5 months later): 88.2%
- Loxoprofen sodium content (%) (vs. initial value) ([1]; solvent system Lactic acid 5 g + NMP0.1 g, 1.0 month later): 82.7%
- Loxoprofen sodium content (%) (vs. initial value) ([1]; solvent system Lactic acid 5 g + NMP1.0 g, 0.5 months later): 91.3%
- Loxoprofen sodium content (%) (vs. initial value) ([1]; solvent system Lactic acid 5 g + NMP1.0 g, 1.0 month later): 85.8%
- Loxoprofen sodium content (%) (vs. initial value) ([1]; solvent system Lactic acid 5 g + NMP10.0 g, 0.5 months later): 99.8%
- Loxoprofen sodium content (%) (vs. initial value) ([1]; solvent system Lactic acid 5 g + NMP10.0 g, 1.0 month later): 99.4%
- Loxoprofen sodium content (%) (vs. initial value) ([1]; solvent system Lactic acid 5 g, 0.5 months later): 83.1%
- Loxoprofen sodium content (%) (vs. initial value) ([1]; solvent system Lactic acid 5 g, 1.0 month later): 79.9%
- Loxoprofen sodium content (%) (vs. initial value) ([1]; solvent system Peppermint oil 5 g, 0.5 months later): 83.2%
- Loxoprofen sodium content (%) (vs. initial value) ([1]; solvent system Peppermint oil 5 g, 1.0 month later): 77.7%
- time dependent lowering of the content of loxoprofen sodium (in words) ([1]; solvent system of conc. glycerin, “polysorbate 80”, mentha oil or lactic acid): greatly exhibited
- Loxoprofen sodium content (%) (vs. initial value) ([1]; solvent system “Polysorbate 80 g” 5 g, 0.5 months later): 83.5%
- Loxoprofen sodium content (%) (vs. initial value) ([1]; solvent system “Polysorbate 80 g” 5 g, 1.0 month later): 69.1%
- Loxoprofen sodium content (%) (vs. initial value) ([2]; solvent system Lactic acid 5 g + NMP0.1 g, 2 hrs): 96.0%
- Loxoprofen sodium content (%) (vs. initial value) ([2]; solvent system Lactic acid 5 g + NMP0.1 g, 4 hrs): 90.7%
- Loxoprofen sodium content (%) (vs. initial value) ([2]; solvent system Lactic acid 5 g + NMP0.1 g, 6 hrs): 87.4%
- Loxoprofen sodium content (%) (vs. initial value) ([2]; solvent system Lactic acid 5 g + NMP1.0 g, 2 hrs): 98.0%
- Loxoprofen sodium content (%) (vs. initial value) ([2]; solvent system Lactic acid 5 g + NMP1.0 g, 4 hrs): 94.2%
- Loxoprofen sodium content (%) (vs. initial value) ([2]; solvent system Lactic acid 5 g + NMP1.0 g, 6 hrs): 91.9%
- Loxoprofen sodium content (%) (vs. initial value) ([2]; solvent system Lactic acid 5 g + NMP10.0 g, 2 hrs): 99.4%
- Loxoprofen sodium content (%) (vs. initial value) ([2]; solvent system Lactic acid 5 g + NMP10.0 g, 4 hrs): 99.8%
- Loxoprofen sodium content (%) (vs. initial value) ([2]; solvent system Lactic acid 5 g + NMP10.0 g, 6 hrs): 99.6%
- Loxoprofen sodium content (%) (vs. initial value) ([2]; solvent system Lactic acid 5 g, 2 hrs): 94.8%
- Loxoprofen sodium content (%) (vs. initial value) ([2]; solvent system Lactic acid 5 g, 4 hrs): 90.3%
- Loxoprofen sodium content (%) (vs. initial value) ([2]; solvent system Lactic acid 5 g, 6 hrs): 86.8%
- time dependent lowering of the content of loxoprofen sodium (in words) ([2]; solvent system including lactic acid and N-methyl-2-pyrrolidone (Tables 2 to 3, FIGS. 1 to 2)): markedly suppressed
- amount of dissolution of loxoprofen sodium (in words) ([3]; lactic acid and N-methyl-2-pyrrolidone used in combination): markedly great
- amount of dissolution of loxoprofen sodium (in words) ([3]; lactic acid or N-methyl-2-pyrrolidone used alone, or other composition): significantly small
- Amount of dissolved LOX ([3]; per 1 g of additive: 10% Citric anhydride + NMP, mixing ratio 1:10): 0.1 g
- Amount of dissolved LOX ([3]; per 1 g of additive: 20% Citric anhydride + NMP, mixing ratio 1:5): 0.1 g
- Amount of dissolved LOX ([3]; per 1 g of additive: 89% Phosphoric acid): 0.25 g
- Amount of dissolved LOX ([3]; per 1 g of additive: Behenic acid + NMP, mixing ratio 1:1): 0 g
- Amount of dissolved LOX ([3]; per 1 g of additive: Cetyl lactate + NMP, mixing ratio 1:4): 0 g
- Amount of dissolved LOX ([3]; per 1 g of additive: Crotamiton): 0 g
- Amount of dissolved LOX ([3]; per 1 g of additive: Isostearic acid + NMP, mixing ratio 1:1): 0 g
- Amount of dissolved LOX ([3]; per 1 g of additive: L-menthol + NMP, mixing ratio 1:1): 0 g
- Amount of dissolved LOX ([3]; per 1 g of additive: Lactic acid): 0.25 g
- Amount of dissolved LOX ([3]; per 1 g of additive: Lactic acid + NMP, mixing ratio 1:2): 1.5 g
- Amount of dissolved LOX ([3]; per 1 g of additive: Malic acid + NMP, mixing ratio 1:4): 0 g
- Amount of dissolved LOX ([3]; per 1 g of additive: Myristic acid + NMP, mixing ratio 1:10): 0 g
- Amount of dissolved LOX ([3]; per 1 g of additive: NMP): 0 g
- Amount of dissolved LOX ([3]; per 1 g of additive: Oleyl alcohol): 0 g
- Amount of dissolved LOX ([3]; per 1 g of additive: Peppermint oil): 0 g
- Amount of dissolved LOX ([3]; per 1 g of additive: Phosphoric acid (89%) + NMP, mixing ratio 1:2): 0 g
- Amount of dissolved LOX ([3]; per 1 g of additive: Polyethylene glycol 400): 0.25 g
- Amount of dissolved LOX ([3]; per 1 g of additive: Stearic acid + NMP, mixing ratio 1:1): 0 g
- Amount of dissolved LOX ([3]; per 1 g of additive: Tartaric acid + NMP, mixing ratio 1:2): 0 g
- Amount of dissolved LOX ([3]; per 1 g of additive: Triacetin): 0 g
- stability of the drug (FIG. 4, in words) [4]: significantly improved
- stability of LOX (in words) ([5]; lactic acid and adipic acid): favorable stability
- stability of LOX (in words) ([5]; lactic acid and benzoic acid): favorable stability
SMILES: CC(C(=O)O)c1ccc(CC2CCCC2=O)cc1 (centres unmarked) [LOX, loxoprofen sodium]
- content of LOX versus control group without the additive (FIG. 3) ([5]; lactic acid 5 g + 1 g additive having a carboxylic acid group (aspartic acid, isostearic acid, disodium edetate, carboxyvinyl polymer), irrespective of the presence of NMP, 120° C.): almost a similar level to the LOX content in the control group
- content of LOX versus control group (FIG. 3) ([5]; lactic acid 5 g + 1 g polyvinylpyrrolidone, irrespective of the presence of NMP, 120° C.): increased to a level higher than the content of LOX in the control group

- reduction of stability caused by blending glycerin, effect of adding NMP (FIG. 5) ([6]; 0.1 g drug in 5 g glycerin with 1 g or 10 g NMP): compensated
- reduction of stability caused by blending lactic acid, effect of adding NMP (FIG. 5) ([6]; 0.1 g drug in 5 g lactic acid with 1 g or 10 g NMP): greatly compensated
SMILES: O=C(O)Cc1ccccc1Nc1c(Cl)cccc1Cl [diclofenac sodium]

- stability of the drug (FIG. 4, in words) [4]: significantly improved
SMILES: O=C(O)Cc1ccc(-c2ccccc2)cc1 [felbinac]

- stability of the drug (FIG. 6, in words) [7]: greatly improves
SMILES: CC(C)(C)NCC(O)c1ccccc1Cl (centres unmarked) [tulobuterol]
